According to ChEMBL document CHEMBL1140284, “A three-dimensional pharmacophore model for 5-hydroxytryptamine6 (5-HT6) receptor antagonists” (J Med Chem, 2005):

Target: 5-hydroxytryptamine receptor 6 (Homo sapiens, UniProt P50406)
Assay: Binding affinity for human 5-hydroxytryptamine 6 receptor

Chain of 5-hydroxytryptamine receptor 6 (P50406 whole entry): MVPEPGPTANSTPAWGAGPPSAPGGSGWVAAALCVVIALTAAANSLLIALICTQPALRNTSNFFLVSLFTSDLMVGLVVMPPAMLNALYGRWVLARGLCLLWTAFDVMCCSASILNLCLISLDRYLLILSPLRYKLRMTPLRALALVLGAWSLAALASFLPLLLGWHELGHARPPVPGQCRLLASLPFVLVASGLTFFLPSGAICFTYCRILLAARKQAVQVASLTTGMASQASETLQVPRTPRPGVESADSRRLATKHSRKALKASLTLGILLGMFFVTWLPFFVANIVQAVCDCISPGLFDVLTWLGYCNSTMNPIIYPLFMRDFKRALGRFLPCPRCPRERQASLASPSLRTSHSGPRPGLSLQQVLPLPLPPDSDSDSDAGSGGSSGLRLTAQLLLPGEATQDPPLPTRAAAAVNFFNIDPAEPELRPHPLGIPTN

Q: For `Cc1ccc(S(=O)(=O)n2cc3c4c(cccc42)[C@H](O)[C@@H](N(C)C)C3)cc1`, which Ki is on record?
A: The Ki was 7.94 nM.

Q: With `CN(C)CCn1ccc2cc(NS(=O)(=O)c3c(Cl)nc4sccn34)ccc21` as the compound, how does the Ki read?
A: The Ki was 2 nM.

Q: For `COc1cccc(-c2noc(-c3[nH]c4ccccc4c3CCN)n2)c1`, which Ki is on record?
A: The Ki was 1.26 nM.

Q: Which Ki does the source give for `Nc1ccc(S(=O)(=O)Nc2ccc3cc[nH]c3c2)cc1` here?
A: Its Ki is 1260 nM.

Q: Which Ki does the source give for `Nc1ccc(S(=O)(=O)Nc2cccc3[nH]ccc23)cc1` here?
A: The Ki was 63.1 nM.

Q: Which Ki does the source give for `Cc1c(S(=O)(=O)Nc2ccc3ncc(N4CCN(C)CC4)cc3c2)sc2ccc(Cl)cc12` here?
A: The Ki was 79.4 nM.

Q: With `CCOC(=O)c1[nH]c2ccccc2c1CCN` as the compound, how does the Ki read?
A: Its Ki is 20 nM.

Q: Which Ki does the source give for `COc1cccc2c(CCN)cn(S(=O)(=O)c3ccc4ccccc4c3)c12` here?
A: Its Ki is 5.01 nM.

Q: With `COc1cc(N)cc(NS(=O)(=O)c2ccc(N)cc2)c1` as the compound, how does the Ki read?
A: Its Ki is 39.8 nM.

Q: With `CC[N+](C)(CC)CCc1cn(S(=O)(=O)c2ccc(NC(C)=O)cc2)c2ccc(OC)cc12` as the compound, how does the Ki read?
A: The Ki was 251 nM.

Q: How did the Ki turn out when `Cc1cn(S(=O)(=O)c2ccc(N)cc2)c2ccccc12` was run?
A: Its Ki is 12.6 nM.

Q: How did the Ki turn out when `CSc1nc2ccccn2c(=N)c1S(=O)(=O)c1ccccc1` was run?
A: The Ki was 3.98 nM.

Q: For `Nc1ccc(S(=O)(=O)Nc2cccc(N)c2)cc1`, which Ki is on record?
A: Its Ki is 631 nM.

Q: How did the Ki turn out when `CON1CCN(c2ccc(S(=O)(=O)c3cccc4ccccc34)cc2)CC1` was run?
A: Its Ki is 0.126 nM.

Q: Which Ki does the source give for `NCc1cn(S(=O)(=O)c2ccccc2)c2ccccc12` here?
A: Its Ki is 3.16 nM.

Q: `Nc1ccc(S(=O)(=O)n2c3c(c4ccccc42)CCCC3)cc1` was tested. Which Ki did it give?
A: Its Ki is 31.6 nM.

Q: `O=S(=O)(c1ccccc1)c1cc2c(N3CCNCC3)cccc2[nH]1` was tested. Which Ki did it give?
A: The Ki was 0.126 nM.

Q: How did the Ki turn out when `O=S(=O)(Nc1ccc2ccn(CCN3CCCC3)c2c1)c1c(Cl)nc2sccn12` was run?
A: The Ki was 50.1 nM.

Q: `NCc1cn(S(=O)(=O)c2ccc(N)cc2)c2ccccc12` was tested. Which Ki did it give?
A: Its Ki is 6.31 nM.

Q: For `NCCc1c[nH]c2ccc(NS(=O)(=O)c3ccc4c(Cl)cccc4c3)cc12`, which Ki is on record?
A: The Ki was 0.2 nM.

Q: With `O=S(=O)(c1ccc2ccccc2c1)n1ccc2ccc(N3CCN4C=CCC4C3)cc21` (stereo unspecified) as the compound, how does the Ki read?
A: The Ki was 0.2 nM.

Q: Which Ki does the source give for `O=S(=O)(Nc1ccc2c(ccn2CCCN2CCCCC2)c1)c1c(Cl)nc2sccn12` here?
A: Its Ki is 1000 nM.

Q: `Nc1ccc(S(=O)(=O)c2cc(Br)nc(Br)c2)cc1` was tested. Which Ki did it give?
A: Its Ki is 50.1 nM.

Q: With `O=S(=O)(c1cccc2ccccc12)n1ccc2ccc(C3=CCN4CCCC4C3)cc21` (stereo unspecified) as the compound, how does the Ki read?
A: The Ki was 1.26 nM.

Q: For `COc1ccc(NS(=O)(=O)c2cccc(I)c2)cc1N1CCNCC1`, which Ki is on record?
A: Its Ki is 0.794 nM.

Q: With `COc1ccc2c(c1)c(CCN)cn2S(=O)(=O)c1cccc2ccccc12` as the compound, how does the Ki read?
A: Its Ki is 0.794 nM.

Q: With `CNc1cc(NS(=O)(=O)c2ccc(N)cc2)cc(NC)n1` as the compound, how does the Ki read?
A: The Ki was 15.8 nM.

Q: `COc1ccc2[nH]c(-c3ccccc3)c(CCN(C)C)c2c1` was tested. Which Ki did it give?
A: The Ki was 50.1 nM.

Q: With `COc1ccc2c(c1)c(CCN(C)C)cn2S(=O)(=O)c1ccccc1` as the compound, how does the Ki read?
A: Its Ki is 2.51 nM.

Q: Which Ki does the source give for `CN(C)CCc1cn(S(=O)(=O)c2ccccc2)c2ccccc12` here?
A: The Ki was 3.16 nM.

Q: With `Nc1ccc(S(=O)(=O)Nc2cc(N)nc(Br)c2)cc1` as the compound, how does the Ki read?
A: Its Ki is 50.1 nM.
